Experimental data published in US20040059104A1, “Nucleotide mimics and their prodrugs” (priority 2002, published 2004).

Columns and labels:
Staphylococcus aureus = experiment: Antimicrobial assay, minimal inhibitory concentration; type: cell-based
Method: (§1) To examine the antimicrobial potential of the nucleotide mimics of the present invention an assay was employed that allowed the screening of a large number of compounds simultaneously. The type of bacteria chosen to screen the compounds are organisms associated with human disease and represent major groups of bacteria based on their structure and metabolism. Bacterial cultures of Escherichia coli and Staphylococcus aureus were incubated overnight at 37° C. in a shaker incubator. A lawn of each overnight bacterial culture was made by plating […] of bacteria on agar plates containing Nutrient Broth. Immediately after plating, sterile blank paper discs were put on top of the lawn and a compound was applied to each blank paper disc. Plates were then incubated overnight and examined for the inhibition of bacterial growth the following day. […] The plates were incubated overnight at 37° C. and then examined spectrophotometrically at 600 nm to determine the minimum concentration of each compound that inhibited replication of bacteria as determined by no increase in absorbance at 600 nm.

HIV-1RF = experiment: Anti-HIV-1 cytoprotection assay in CEM-SS cells; type: cell-based; conditions: CEM-SS cells infected with HIV-1RF, MOI approximately 0.01, 6 days, MTS; read-out: CEM-SS IC50 (Anti-HIV Screening)
Method: (§2) ollowing paper: Structure-Activity and Cross-Resistance unodeficiency Virus Type 1-Specific ckheit, Jr. et al., Antimicrobial Agents and s were evaluated in CEM-SS cell cultures V-1RF at an MOI of approximately 0.01. At he soluble tetrazolium-based dye MTS viability and quantify compound toxicity of metabolically active cells to yield a soluble analysis of cell viability and compound
Efficacy Evaluation in CEM-SS Cells Anti-HIV-1 Cytoprotection Assay
Cell Preparation—CEM-SS cells were passaged in T-75 flasks prior to use in the antiviral assay. On the day preceding the assay, the cells were split 1:2 to assure they were in an exponential growth phase at the time of infection. Total cell and viability quantification was performed using a hemacytometer and trypan blue exclusion. Cell viability was greater than 95% for the cells to be utilized in the assay. The cells were resuspended at 5×10^4 cells/ml in tissue culture medium and added to the drug-containing microtiter plates in a volume of 50 μl.
Virus Preparation—The virus used for these tests was the lymphocytropic virus strain HIV-1RF. This virus was obtained from the NIH AIDS Research and Reference Reagent Program and was grown in CEM-SS cells for the production of stock virus pools. For each assay, a pre-titered aliquot of virus was removed from the freezer (−80° C.) and allowed to thaw slowly to room temperature in a biological safety cabinet. The virus was resuspended and diluted into tissue culture medium such that the amount of virus added to each well in a volume of 50 μl was the amount determined to give between 85 to 95% cell killing at 6 days post-infection.
(§3) At assay termination, the assay plates were stained with the soluble tetrazolium-based dye MTS (CellTiter Reagent Promega) to determine cell viability and quantify compound toxicity. MTS is metabolized by the mitochondrial enzymes of metabolically active cells to yield a soluble formazan product, allowing the rapid quantitative analysis of cell viability and compound cytotoxicity. […] At termination of the assay, 20 μL of MTS reagent was added per well. The microtiter plates were then incubated 4-6 hrs at 37° C. for the HIV cytoprotection assay; the incubation intervals were chosen based on empirically determined times for optimal dye reduction. Adhesive plate sealers were used in place of the lids, the sealed plate was inverted several times to mix the soluble formazan product and the plate was read spectrophotometrically at 490 nm with a Molecular Devices Vmax plate reader.

Escherichia coli = experiment: Antimicrobial assay, minimal inhibitory concentration; type: cell-based
Method: as §1

CEM-SS cells = experiment: Compound toxicity in CEM-SS cells (MTS staining); type: cell-based; conditions: read-out: CEM-SS TC50
Method: as §2, §3

[1] = molecular target: T1, HIV Reverse Transcriptase (Type B, 66 kDa subunit) (Human immunodeficiency virus type 1 group M subtype B, UniProt P04585); experiment: HIV Reverse Transcriptase inhibition assays (RNA-directed DNA polymerization, PicoGreen fluorescence); type: biochemical; conditions: Table 1; template (homopolymer or heteropolymer RNA) not stated; read-out: Ki, Inhibition of HIV Reverse Transcriptase by Nucleotide Mimics
T1 construct: purified HIV Reverse Transcriptase (Type B, 66 kDa subunit)
Method: The assays employed to measure inhibition of HIV Reverse Transcriptase (HIV RT) catalyzed/RNA-directed DNA polymerization are described below. The effectiveness of the compounds of the present invention as inhibitors of HIV RT-catalyzed DNA polymerization was measured in the following assays.
This assay was used to measure the ability of the nucleotide mimics of the present invention to inhibit the enzymatic synthesis of complementary strand DNA from a DNA-primed template of homopolymeric RNA. This assay is a modification of a published procedure (Seville, et al., “Fluorometric Assay for DNA Polymerases and Reverse Transcriptase”, BioTechniques 1996, 21, 664-72).
The compounds were tested at various concentrations up to 500 μM final concentration. DNA polymerase activity was measured in a reaction buffer containing primed-RNA template and dTTP diluted to appropriate concentrations in assay buffer. Nucleotide mimics of the present invention were diluted in buffer and pipetted into the wells of a 96-well plate. The reaction was initiated by addition of enzyme and allowed to proceed at 37° C. for 10 minutes. The reaction was quenched by addition of 5 μL 0.2 M EDTA, pH 8.0.
200 μL of diluted PicoGreen dsDNA Quantitation Reagent (Molecular Probes, Inc, Eugene, Oreg.) was added to each well of a 96-well plate and incubated at room temperature for 5 minutes. Plate wells were read on a microplate fluorometer (Molecular Devices Corp., Sunnyvale, Calif.). The wells were excited at 480 nm and the fluorescence emission intensity (RFU) was measured at 520 nm. The percentage of inhibition was calculated according to the following equation:
% Inhibition=[1−(RFU in test reaction−RFU in blank)/(RFU in control reaction−RFU in blank)]×100.
Each inhibitor was titrated over an appropriate range of concentrations, and inhibition constants were determined using the following equations:
v=Vm[S]/(Km(1+[I]/Ki)+[S])
Certain compounds of the present invention were also tested to determine their ability to inhibit HIV RT-catalyzed DNA polymerization on a heteropolymeric primed-RNA template in the presence of all four natural deoxynucleotide triphosphate (dNTP) substrates. This assay is a modification of a published procedure (Parker et al., “Mechanism of Inhibition of Human Immunodeficiency Virus Type 1 Reverse Transcriptase and Human DNA Polymerases α, β, and γ by the 5′-Triphosphates of Carbovir,3′-Azido-3′-deoxythymidine,2′-3′-Dideoxyguanosine, and 3′-Deoxythymidine”, J. Biol. Chem. 1991, 266 (3), 1754-62).
HIV RT DNA polymerase activity was measured in a reaction buffer containing primed-ribosomal RNA template and dNTPs diluted to appropriate concentrations in assay buffer and pipetted into 1.5 mL microcentrifuge tubes. Nucleotide mimics of the present invention were diluted in buffer and tested at various concentrations up to 5 μM final concentration. The reaction was initiated by addition of enzyme and allowed to proceed at 42° C. for 60 to 90 minutes. The reaction was quenched by addition of 12 μL 0.2 M EDTA, pH 8.0.
50 μL each of reaction was transferred to the well of a 96-well plate (in duplicate). 200 μL of diluted PicoGreen dsDNA Quantitation Reagent was added to each well of a 96-well plate and incubated at room temperature for 5 minutes. Plate wells were read on a microplate fluorometer. The wells were excited at 480 nm and the fluorescence emission intensity (RFU) was measured at 520 nm. The percentage of inhibition and inhibition constants […] were determined for representative compounds as described above.

in vitro [2] = experiment: in vitro
Method: Typically the total volume used for the experiment was 500 μl. The final concentrations of the reaction components were as follows:
The reacton mixtures were made up and incubated at 37° C. At appropriate times aliquots of 25 μl were removed and added to 65 μl ice-cold methanol. These solutions were our at −20° C. and typically overnight. After incubation samples were inutes at high speed in a microcentrifuge. The supernatant was nd the extract was dried under vacuum in a LabConco Centrivap Concentrator. The dried extracts were resuspended in dH2O and filtered to remove particulate before analysis on reverse phase HPLC.
The reverse phase HPLC columns used for the analysis were either a Phenomenex C18 Aqua column (2×100 mm) or the Phenomenex C18 Aqua column (3×150 mm) used with the appropriate guard column. The HPLC was run at 0.2 ml/min (for the 2×100 mm column) or at 0.5 ml/min (for the 3×150 mm column) with the following buffer system: 5 mM tetrabutylammonium acetate, 50 mM ammonium phosphate, and an acetonitrile gradient running from 5% up to as high as 60%. The amount of remaining parent compound at each time point was used to determine the half-life of the compound. […] Unmodified nucleoside triphosphates were used as positive controls.

in vitro [3] = experiment: in vitro; remark: listed apart in the source
Method: The stability of compounds in cell extracts was examined as follows:
Cell lysis buffer was added to cell pellets and the cells frozen and thawed 3× using dry ice. The lysis buffer (LB) was composed of the following: 50 mM Tris-HCl, pH 7.4 (100 μl/ml 10× stock), 20% glycerol (200 μl/ml), and 0.5% Triton X-100 (5 μl/ml). 100 μl of LB was added to each microfuge tube containing 10^7 frozen CEM cells. After the cells were lysed the extracts were centrifuged at high speed in a microcentrifuge for 5 minutes and the clarified cell extract transferred to a new tube. The cell stability reaction mixtures contained concentrations of buffer, magnesium, nucleotide, and cell extract as shown below:
The reaction mixtures were incubated at 37° C. At each time point, including at time zero, 12.5 μl aliquots were added to 40 μl ice-cold methanol. […] The samples were incubated in methanol for at least 60 minutes and typically overnight at −20° C. prior to further processing. The cell extracts were centrifuged at high speed in refrigerated microcentrifuge for 20 minutes and the supernatant transferred to a new tube. The extract was then dried under vacuum in a LabConco Centrivap Concentrator. The samples were then resuspended in 40 or 50 μl dH2O, filtered to remove any particulate, and analyzed by reverse phase HPLC.
The reverse phase HPLC columns used for the analysis were either a Phenomenex C18 Aqua column (2×100 mm) or the Phenomenex C18 Aqua column (3×150 mm) used with the appropriate guard column. The HPLC flow rate was either 0.2 ml/min (for the 2×100 mm column) or 0.5 ml/min (for the 3×150 mm column) with the following buffer system: 5 mM tetrabutylammonium acetate, 50 mM ammonium phosphate, and an acetonitrile gradient running from 5% up to as high as 60%. The amount of remaining parent compound at each time point was used to determine the half-life of the compound. […] Unmodified nucleoside triphosphates were used as positive controls.

[4] = overnight at 37° C., tested 0-200 μg/ml, NA = Not active
[5] = value in brackets beside the μg/ml value

Row | Compound | S. aureus MIC (Staphylococcus aureus; [4]) | S. aureus MIC (Staphylococcus aureus; [5]) | IC50 (HIV-1RF) | E. coli MIC (Escherichia coli; [4]) | E. coli MIC (Escherichia coli; [5]) | CC50 (CEM-SS cells) | Ki [1] | further results
1 | 2′-Deoxy-2′,2′-difluorocytidine 5′-β-O—(S-pivaloyl-2-thioethyl) -α,β-methylene-diphosphonate [Compound 75] | 15 µg/mL | (26) μM | – | – | – | – | – | –
2 | 3′-Azido-3′-deoxythymidine 5′-α-P-borano-β,γ-difluoromethylene-γ-O-methyltriphosphate [Compound 40] | – | – | 4 µM | 25 to 50 µg/mL | (40-80) uM | > 200 µM | 0.069 µM | –
3 | 3′-Azido-3′-deoxythymidine 5′-α-P-borano-β,γ-diluoromethylene-γ-O-(4-nitrophenyl)triphosphate [Compound 43] | – | – | 6.43 µM | – | – | 125 µM | – | –
4 | BP(=O)(OC[C@@H]1O[C@H](n2cc(C)c(=O)[nH]c2=O)C[C@H]1N=[N+]=[N-])OP(=O)(O)C(Cl)(Cl)P(=O)(O)O (single isomer, unassigned; isomer 1) [Compound 26-isomer 1, 3′-Azido-3′-deoxythymidine 5′-α-P-borano-β,γ-(dichloromethylene)triphosphate] | – | – | – | 12 µg/mL | (21) uM | – | 0.093 µM | Half-Life, Serum Half-Lives of NTPs and AZT Triphosphate Mimics (in vitro [2]; bovine, serum): 45 h; Half-Life, Cell extract Half-Lives of AZT Triphosphate Mimics (in vitro [3]; human): >48 h
5 | BP(=O)(OC[C@H]1O[C@@H](n2cc(C)c(=O)[nH]c2=O)C[C@H]1N=[N+]=[N-])OP(=O)(O)C(F)(F)P(=O)(O)Oc1ccccc1 (stereo partly drawn) [Compound 42, 3′-Azido-3′-deoxythymidine 5′-α-P-borano-β,γ-difluoromethylene-γ-O-phenyltriphosphate] | – | – | 2.54 µM | – | – | 32.1 µM | 0.113 µM | Half-Life, Serum Half-Lives of AZT Triphosphate Mimic Prodrugs (in vitro [2]; bovine, serum): >48 h
6 | CC(C)(C)C(=O)SCCOP(=O)(O)CP(=O)(OCCSC(=O)C(C)(C)C)OC[C@H]1O[C@@H](n2ccc(N)nc2=O)C(F)(F)[C@@H]1O (stereo partly drawn) [Compound 76, 2′-deoxy-2′,2′-difluorocytidine 5′-di-α, β-O—(S-pivaloyl-2-thioethyl)-α,β-methylenediphosphonate] | 25 µg/mL | (35) μM | – | – | – | – | – | Half-Life, Serum Half-Lives of Gemcitibine Diphosphate Mimics and Their Prodrugs (in vitro [2]; Table 8, 50% fetal calf serum, 37° C., 500 μM, time points through 48 hours): >48 h; Half-Life, Cell Extract Half-Lives of Gemcitibine 5'-Methylendiphosphonate and its Prodrugs (in vitro [3]; Table 11, 50% CEM cell extract, 37° C., 500 μM, time points through 48 hours): 37 h
